For one molecule, Activity results are on record in ChEMBL document CHEMBL1921741, “Triggering of erythrocyte cell membrane scrambling by ursolic acid” (J Nat Prod, 2011).

Activity calls are given as the source filed them. The calls are words filed in the database; no cut-off is given here.

The test system of assay [1] is Erythrocyte. Description: Induction of eryptosis in human erythrocytes assessed as hemolysis-mediated hemoglobin release at 1 uM after 48 hrs by photometric analysis. It counts as functional, cell-based.
Assay [2] has as its system Erythrocyte. Description: Induction of eryptosis in human erythrocytes assessed as phospholipid scrambling of the cell membrane at >= 5 uM after 48 hrs using Annexin V-FITC staining by confocal laser scanning microscopy. Format: functional, cell-based.
The test system of assay [3] is Erythrocyte. Description: Induction of eryptosis in human erythrocytes assessed as cell shrinkage measuring decrease in forward scatter of the cells at 5 uM after 48 hrs by […] FACS analysis. It counts as functional.
Assay [4] relates to Erythrocyte. Description: Induction of eryptosis in human erythrocytes assessed as increase in cytosolic Ca2+ concentration at >= 5 uM after 48 hrs by fluo-3/AM-fluorescence-based FACS analysis. Format: functional, cell-based. In general terms: Flow cytometry measures light scatter and fluorescence of single cells or particles in a stream.
Assay [5] relates to Erythrocyte. Description: Induction of eryptosis in human erythrocytes assessed as stimulation of ceramide formation at 10 uM after 48 hrs by FITC-based flow cytometry. Format: functional, cell-based.
For assay [6], the system named is Erythrocyte. Description: Induction of eryptosis in human erythrocytes assessed as decrease in intracellular ATP concentration at 10 uM after 48 hrs by luciferase-based luminometry. Format: functional, cell-based.
Assay [7] has as its system Erythrocyte. Description: Induction of eryptosis in human erythrocytes assessed as phospholipid scrambling of the cell membrane at 10 uM after 48 hrs using Annexin V-FITC staining by confocal laser scanning microscopy in absence of Ca2+. Format: functional, cell-based.
The subject of assay [8] is Erythrocyte. Description: Induction of apoptosis in human erythrocytes assessed as scrambling of the cell membrane at 0.5 to 10 uM after 48 hrs using Annexin V-FITC staining by confocal laser scanning microscopy in presence of Ca2+. It counts as functional, cell-based.

For the molecule `C[C@H]1[C@H](C)CC[C@]2(C(=O)O)CC[C@]3(C)C(=CC[C@@H]4[C@@]5(C)CC[C@H](O)C(C)(C)[C@@H]5CC[C@]43C)[C@H]12`, the outcome in the assay with Erythrocyte [1], in the assay with Erythrocyte [2], in the assay on Erythrocyte [3], with Erythrocyte [4] and in the assay with Erythrocyte [8] was Active. For the same molecule, the result with Erythrocyte [5], in the assay with Erythrocyte [6] and in the assay with Erythrocyte [7] was inactive.
